Experimental data reported in patent US7417056B2, “5-substituted quinoline and isoquinoline derivatives, a process for their production and their use as anti-inflammatory agents” (Schering AG, priority 2004, dated 2008).

Columns and labels:
[1] = system: tyrosine aminotransferase (TAT); assay: Induction of tyrosine aminotransferase (TAT) in rat hepatoma cells; type: cell-based; details: for efficiency, induction of TAT: 24 hours, efficiency of dexamethasone = 100%; for EC50: treated for 24 hours
Text: One of the most frequent undesirable actions of a glucocorticoid therapy is the so-called “steroid diabetes” [cf. Hatz, H. J., Glucocorticoide: Immunologische Grundlagen, Pharmakologie und Therapierichtlinien [Glucocorticoids: Immunological Principles, Pharmacology and Therapy Guidelines], Wissenschaftliche Verlagsgesellschaft mbH, Stuttgart, 1998]. The reason for this is the stimulation of gluconeogenesis in the liver by induction of the enzymes that are responsible for this and by free amino acids that are produced from the degradation of proteins (catabolic action of glucocorticoids). A key enzyme of the catabolic metabolism in the liver is the tyrosine aminotransferase (TAT). The activity of this enzyme can be determined photometrically from cell cultures of treated rat hepatoma cells. The cells are treated for 24 hours with the test substances, and then the TAT activity is measured.

[2] = Skin atrophy in rats (skin fold thickness measurement); type: in vivo; details: local, daily for 18 days
Experimental: Another undesirable action that occurs especially after local therapy is the induction of a skin atrophy, which leads to the skin's loss of thickness, elasticity, and ultimately the mechanical resistance of the skin. The potential of a substance to induce skin atrophy can be determined in rats. The animals are treated for 18 days daily and locally in equieffective dosages with the test substances. By means of a skin fold thickness measurement, the reduction of the skin thickness over the treatment time can be tracked.

[3] = system: secretion of the cytokine IL-8, induced by lipopolysaccharide (LPS), in the human monocyte cell line THP-1; assay: Inhibition of LPS-induced IL-8 secretion in THP-1 cells (ELISA); type: cell-based; details: efficiency of dexamethasone = 100%
Experimental: The concentration of the cytokines was determined in the supernatant by means of commercially available ELISA kits.

Row | reduction of the skin thickness ([2]; concentration 0.1% (maximum anti-inflammatory action is achieved)) | reduction of the skin thickness ([2]; concentration 0.01% (maximum anti-inflammatory action is achieved)) | EC50 [1] | Compound | efficiency, induction of TAT [1] | efficiency, inhibition of IL-8 secretion [3]
1 | 41% |  |  | Cc1ccc2c(NCC(O)(CC(C)(C)c3cc(F)cc4c3OCC4)C(F)(F)F)cccc2n1 (centres unmarked) [Example 1, 5-[4-(5-Fluoro-2,3-dihydrobenzofuran-7-yl)-2-hydroxy-4-methyl-2-trifluoromethyl-pentylamino]-2-methylquinoline] | 93% | 74%
2 |  |  | 10 nM | Cc1ccc2c(NCC(O)(CC(C)(C)c3cc(F)cc4c3OCC4)C(F)(F)F)ccc(F)c2n1 (centres unmarked) [Example 10, 8-Fluoro-5-[4-(5-Fluoro-2,3-dihydrobenzofuran-7-yl)-2-hydroxy-4-methyl-2-trifluoromethyl-pentylamino]-2-methylquinoline] | 92% | 86%
3 |  |  | 4 nM | Cn1ccc2c(NCC(O)(CC(C)(C)c3cc(F)cc4c3OCC4)C(F)(F)F)cccc2c1=O (centres unmarked) [Example 11, 5-[4-(5-Fluoro-2,3-dihydrobenzofuran-7-yl)-2-hydroxy-4-methyl-2-trifluoromethyl-pentylamino]-2-methylisoquinol-1(2H)-one] | 86% | 61%

The remaining lines, values behind:

Row | Compound | reduction of the skin thickness ([2]; concentration 0.1% (maximum anti-inflammatory action is achieved)) | reduction of the skin thickness ([2]; concentration 0.01% (maximum anti-inflammatory action is achieved)) | EC50 [1] | efficiency, induction of TAT [1] | efficiency, inhibition of IL-8 secretion [3]
4 | CCC(=O)O[C@]1(C(=O)CCl)[C@@H](C)C[C@H]2[C@@H]3CCC4=CC(=O)C=C[C@]4(C)[C@@]3(F)[C@@H](O)C[C@@]21C [clobetasol propionate, reference compound] |  | 65% |  |  | 
5 | C[C@]12C=CC(=O)C=C1CC[C@@H]1[C@@H]2[C@@H](O)C[C@@]2(C)[C@H]1CC[C@]2(O)C(=O)CO [prednisolone, reference compound] |  |  |  |  | 96%
